What all share (test): NCI anticancer screen, dose series, 48 h
For experiment [1], the system named is MCF7 breast.
In experiment [2] the test system is TK-10 renal.
Experiment [3] deals with PC-3 prostate.
Experiment [4] relates to SR leukemia.
The subject of experiment [5] is MDA-N.
Experiment [6] deals with M14 melanoma.
Experiment [7] deals with BT-549 breast.
The test system of experiment [8] is HCC-2998 colon.
The test system of experiment [9] is SF-539 CNS.
For experiment [10], the system named is MDA-MB-231 breast.
Experiment [11] has as its system CAKI-1 renal.
Experiment [12] concerns DLD-1 colon.
Experiment [13] concerns M19-MEL melanoma.

Data on 27 compounds can be found in PubChem BioAssay (NCI).

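Cells were grown in 96-well plates and exposed to each compound for 48 hours at five concentrations; endpoints were interpolated linearly between bracketing concentrations, or set to the highest concentration if not reached. The concentration for 50% growth inhibition is given as GI50. TGI is the concentration that stops growth completely.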

Take `CCC1(CCSC(=N)N)C(=O)NC(=O)NC1=O`: the TGI in experiment [1], in [2], in experiment [3], in experiment [4], in experiment [5] and in experiment [6] was more than 100 µM each time. Moreover, the TGI in experiment [7], in experiment [8], in experiment [9], in experiment [10] and in [11] was more than 100 µM in each case.

For `C=C1CC[C@@H](Br)C(C)(C)[C@]12CCC(C)(O)C(Cl)C2` (some centres undefined), the TGI in experiment [2] worked out at 78.4 µM; in [12], 32.6 µM; in experiment [13] it was 34.3 µM; in experiment [8], 38.2 µM; in experiment [11], 32 µM.

In the case of `O=C(O)NCc1ccccc1` (tested in a mixture with another compound), the TGI in experiment [1] was more than 100 µM; in experiment [2], more than 87.5 µM; in experiment [3], more than 66.4 µM; in experiment [4], 12.8 µM; in experiment [5], more than 94.4 µM; in [6], 99.3 µM. Also, the TGI in experiment [7] is more than 92.3 µM; in [8], 51.6 µM; in experiment [9], more than 100 µM; in experiment [10], more than 72.2 µM; in experiment [11], more than 100 µM.

Turning to `CC(=O)OC/C=C/Cn1ncc(=O)[nH]c1=O`, the TGI in experiment [1], in experiment [3], in experiment [5], in experiment [6], in experiment [8] and in [9] was more than 100 µM throughout. Moreover, the TGI in experiment [10] and in experiment [11] was more than 100 µM each time.

With `O=[As](O)(O)c1ccc(N=Nc2ccc([As](=O)(O)O)cc2)cc1`, the TGI in experiment [2], in experiment [3], in experiment [4], in [5], in [6] and in experiment [7] was more than 100 µM throughout. Moreover, the TGI in experiment [10] and in [11] was more than 100 µM each time.

On to `Nc1nncc2c1ccn2C1OC(CO)C(O)C1O` (centres undefined), for which the TGI in [2], in experiment [4], in experiment [12], in experiment [13], in experiment [6] and in experiment [8] was more than 100 µM each time. In experiment [9], the TGI was more than 100 µM.

On to `O=C(O)CCSCc1ccc(I)cc1`, for which the TGI in experiment [1], in experiment [2], in experiment [3], in experiment [5], in experiment [6] and in experiment [7] was more than 100 µM in each case. Further, the TGI in [8], in [10] and in experiment [11] was more than 100 µM throughout.

Regarding `COc1cc(N/N=C/C#N)cc(OC)c1OC`, the TGI in experiment [1], in [2], in [3], in [4], in experiment [5] and in [6] was more than 10 µM in each case. For the same compound, the TGI in experiment [8], in experiment [9], in experiment [10] and in experiment [11] was more than 10 µM each time.

On to `Cc1cc2c(cc1C)[n+](=O)c(C#N)c(Cl)n2[O-]`, for which the TGI in experiment [1] was 27.5 µM; in experiment [2], 27.9 µM; in experiment [3] it was more than 100 µM; in [4] it was more than 100 µM; in [5], 41.6 µM; in experiment [7], 38.1 µM. Besides, the TGI turned out to be 23.7 µM in [8], 28.2 µM in experiment [9], 63.8 µM in experiment [10] and 19.7 µM in experiment [11].

As to `O=C(CCl)NC(Cc1ccc(F)cc1)C(=O)O` (centres undefined), the TGI in experiment [1], in [12], in [13], in [8], in experiment [9] and in [11] was more than 100 µM in each case.

Take `CCOC(=O)[C@H]1Nc2c(cccc2[N+](=O)[O-])[C@H]2OCC[C@@H]12`: the TGI in experiment [2], in experiment [4], in experiment [12], in experiment [13], in experiment [6] and in experiment [8] was more than 100 µM each time. Further, the TGI in [9] and in experiment [11] was more than 100 µM each time.

Regarding `CC(C)OC(=O)C1=C(O)c2ccccc2S(=O)(=O)N1`, the TGI in experiment [2], in experiment [12], in experiment [13], in [6], in experiment [8] and in experiment [9] was more than 100 µM in each case. In addition, in experiment [11], the TGI is more than 100 µM.

Take `Nc1c(-c2nc3ccccc3o2)sc(=S)n1-c1ccc(Cl)cc1`: the TGI in [1] was more than 100 µM; in experiment [2], more than 100 µM; in experiment [3], 82.1 µM; in experiment [4], more than 100 µM; in experiment [5], more than 100 µM; in [6], more than 100 µM. The TGI in experiment [7] is 76 µM; in experiment [8], more than 100 µM; in [9], 23.9 µM; in [10] it was 64.5 µM; in experiment [11], 53.4 µM.

For `O=C(N/C(=C\c1cccc([N+](=O)[O-])c1)c1nc2[nH]c(=S)[nH]c(=O)c2[nH]1)c1ccccc1`, the TGI in [4], in [12], in experiment [13], in experiment [6], in experiment [8] and in [9] was more than 100 µM each time. Also, in experiment [11], the TGI was more than 100 µM.

As for `O=C(O)c1ccc([N+]2=Cn3c(nc4ccccc43)C2)cc1`, the TGI in [1], in [2], in [3], in experiment [5], in experiment [6] and in experiment [7] was more than 100 µM each time. The TGI in experiment [8], in [10] and in experiment [11] was more than 100 µM in each case.

On to `O=C(O)c1cc2cc(c1)N=Cc1ccccc1OCc1cccc(n1)COc1ccccc1C=N2`, for which the TGI in [1] is more than 25 µM; in experiment [2], more than 25 µM; in experiment [3] it was more than 25 µM; in experiment [4], more than 25 µM; in experiment [5], 9.82 µM; in experiment [6] it was more than 25 µM. The TGI in experiment [7], in experiment [9] and in experiment [10] was more than 25 µM each time.

`CC[C@H](Nc1nc(N)nc(C)c1C#N)c1nc2cccc(NCc3ccc(C(=O)NO)cc3)c2c(=O)n1-c1ccccc1`: the GI50 in experiment [1] is 2.01 µM; in experiment [2], 2.02 µM; in experiment [3], 0.905 µM; in experiment [4], 0.697 µM; in [7], 1.56 µM; in experiment [9], 1.56 µM. Besides, the GI50 in experiment [10] is 1.84 µM. Further, the TGI was 9.06 µM in experiment [1]; 6.88 µM in [2]; 3.3 µM in experiment [3]; more than 100 µM in [4]; 5.2 µM in experiment [7]; 3.63 µM in [9]. The compound further showed a TGI in experiment [10] of 5.3 µM.

As to `O=C1Nc2ccccc2S/C1=C\c1ccccc1C(F)(F)F`, the TGI in experiment [1], in experiment [2], in experiment [3], in [4], in [5] and in [6] was more than 100 µM throughout. The TGI in experiment [7], in experiment [9], in experiment [10] and in experiment [11] was more than 100 µM throughout.

Regarding `CC(=O)O[C@H]1CC[C@@]2(C)C(=CC[C@@H]3[C@@H]2CC[C@]2(C)Nc4c(cnn4S(C)(=O)=O)C[C@@H]32)C1`, the TGI in [1] was more than 100 µM; in [3], more than 100 µM; in [4], more than 100 µM; in experiment [5] it was more than 100 µM; in experiment [6] it was 75.2 µM; in experiment [7] it was 72.5 µM. The TGI in [8], in experiment [10] and in experiment [11] was more than 100 µM in each case.

For the compound `Cc1ccc([N+](=O)[O-])cc1NC(=O)C(=O)C(C(=O)c1ccccc1F)C1OC(=O)c2ccccc21` (centres undefined), the TGI in [2] was more than 100 µM; in experiment [4], more than 100 µM; in experiment [12], more than 100 µM; in experiment [13], more than 100 µM; in experiment [6], more than 100 µM; in experiment [8], 84.6 µM. For the same compound, the TGI in experiment [9] was 67.3 µM; in experiment [11], more than 100 µM.

As for `N=c1nc2n(cc1F)[C@@H]1O[C@H](CO)[C@@H](O)[C@@H]1O2`, the TGI is more than 100 µM in [1]; more than 100 µM in experiment [2]; more than 100 µM in experiment [3]; more than 73.7 µM in experiment [4]; more than 100 µM in experiment [5]; more than 100 µM in [12]. Further, the TGI in experiment [13] is more than 100 µM; in experiment [6], 7.81 µM; in [7], more than 100 µM; in [8] it was more than 100 µM; in [9], more than 77.2 µM; in experiment [10] it was more than 100 µM. This compound displayed a TGI in [11] of more than 100 µM.

As to `NC(=S)Nc1cc(Cl)ccc1Cl`, the TGI in experiment [2], in experiment [4], in experiment [12], in experiment [13], in [6] and in experiment [8] was more than 100 µM in each case. Besides, the TGI in experiment [9] and in [11] was more than 100 µM in each case.

As to `CCOC(=O)Nc1cc2c(c(N)n1)N=C(c1ccccc1)[C@H](C)N2`, the GI50 in experiment [2] is 14.2 µM; in [9], 0.0269 µM. Further, the TGI in experiment [2] was determined as 57.3 µM; in experiment [5], 0.000122 µM; in experiment [12], 25.1 µM; in [13], 29.2 µM; in [6], 13.8 µM; in [9], 0.0669 µM.

In the case of `Oc1ccc2oc3c(O)c4ccccc4cc3c2c1`, the TGI was 18.8 µM in experiment [1]; 45 µM in experiment [2]; more than 100 µM in experiment [3]; 5.52 µM in [4]; 9.89 µM in experiment [5]; 21.7 µM in experiment [6]. Besides, the TGI in experiment [7] amounted to 15.3 µM; in [9], 3.91 µM; in [10] it was 36 µM; in [11], 68.7 µM.

As for `O=[N+]([O-])c1ccc2c(c1)Nc1c3ccccc3nc3cccc-2c13`, the TGI in [2] was 17.3 µM; in [3], 16.9 µM; in experiment [4] it was 8.91 µM; in experiment [5] it was 15.2 µM; in [6], 16.9 µM; in experiment [7], 29.8 µM. Also, the TGI was 0.341 µM in experiment [8], 44.3 µM in experiment [9], more than 25.4 µM in experiment [10] and 18.8 µM in experiment [11].

On to `Cc1ccc(C[P+]2(c3ccccc3)CCCCC2)cc1`, for which the TGI in [2] was more than 100 µM; in experiment [4], 90.9 µM; in experiment [12], more than 100 µM; in experiment [13], 50.5 µM; in [6], more than 100 µM; in experiment [8], 60.8 µM. For the same compound, in [9], the TGI is more than 100 µM.

As for `Oc1c2c(c3c4c1N=CC=4CCN=3)-c1c(Br)cc(Br)cc1CCN2`, the TGI in experiment [1] is 4.16 µM; in [12], 3.85 µM; in experiment [13] it was 3.33 µM; in [8] it was 4.72 µM; in experiment [9], 9.46 µM; in [11], 51.1 µM.
